In patent US12064418B2, “Conjoint therapies for immunomodulation” (Aurigene Oncology Limited, priority 2017, dated 2024):

Columns and labels:
CT-26 tumor = assay: Tumor growth inhibition in the CT-26 syngeneic mouse tumor model; type: in vivo, mouse (female Balb/c); details: CT-26 tumor bearing Balb/c mice, vs Vehicle (H2O)
Description: The purpose of this study is to determine the effect of Cmd 1 and Cmd 32 on growth inhibition (efficacy) in CT-26 tumor bearing mice when administered once daily by oral gavage as single agents or in combination. Cmd 1 and Cmd 32 are small molecule immune modulating agents for treatment of cancer.
Female Balb/c Mice from Charles River Laboratories −20-25 grams; 9-10 weeks old; Strain code: 028.
CT-26 cells were expanded in T225 tissue culture treated flasks in RPMI-1640 medium supplemented with 10% FBS ([…]) and cultured at 37° C. (5% CO2) in a humidified cell culture incubator. Cells were passaged every 3-4 days by detachment with 1× Trypsin/EDTA. Cells were re-plated on 5 flasks in complete RPMI1640 medium.
On the day of implantation, the cells were collected from flasks washed with phosphate buffer solution and detached with Trypsin/EDTA and washed once in phosphate buffer solution with no additives. Cells were resuspended in serum free DMEM at a final concentration of 1×10^6 cells/mL and kept on ice until administered to mice. The cells were kept on ice for no more than 1 hour before administration to the mice. […]
Animals were monitored until tumors were palpable and were then measured until tumor volume reached 100-200 mm^3. […] Tumor cells were counted on a MACSQuant Analyzer with propidium iodide (PI) for live/dead discrimination. […]

MC38 tumor = assay: Tumor growth inhibition in the MC38 syngenic model; type: in vivo, mouse (female C57BL/6); details: MC38 SC model, oral once a day
Description: Female C57BL/6 mice bred in-house were used in this efficacy study in the MC38 model. Animals were 6-8 weeks-old and weighed between 13 and 21 g. Animals were marked individually with tail marks and kept in cages that were identified by a cage card showing the study code, date of experimentation, sex and number of animals. During the experiment, the animals were weighed daily.
Tumor cells were cultured according to the procedure explained in the literature (U.S. Pat. No. 9,333,256; A. Filatenkov et al., J. Immunol., 2009. 183(11): 7196-7203). Tumor cells were ensured Mycoplasma free by performing Mycoplasma detection with MYCOALERT®Mycoplasma Detection Kit (Lonza) in accordance with manufacturer instructions. MYCOALERT® Assay is a selective biochemical test that exploits the activity of mycoplasmal enzymes. Viable Mycoplasma would be lysed and enzymes react with MYCOALERT® substrate, catalyzing the conversion of ADP to ATP. […]
MC38 cells were cultured according to the information in published literature (A. Filatenkov et al., J. Immunol., 2009. 183(11): 7196-7203; S. F. Ngiow et al., Cancer Res., 2011. 71(10): 3540-3551). […] Tumor volumes were measured 3 times a week, body weight and clinical signs were monitored every day. […]

[1] = Mortality, body weight and clinical signs in the MC38 study; type: in vivo; details: Cmd 32 10 mg/kg group, one animal, no gross pathology, not reliably attributed to treatment
Description: Mortality/morbidity of animals, body weight loss and clinical symptoms were monitored. During study period all moribund animals were sacrificed and animals losing >20% of their body weight were also sacrificed. Body weights were recorded every day and clinical signs of toxicity were recorded once a day. Survival was recorded every day. A 15-20% loss of the body weight and/or animal death was considered as the criteria for toxicity. Behavioural, nesting and gross observations for clinical signs were made at least once every day during the course of the study.
At the end of the study (30 min after the last dose), animals were examined externally for possible abnormalities, weighed and sacrificed by CO2 asphyxiation.

[2] = test system: intratumoral T cell populations; assay: Cell-surface marker assays of intratumoral T cell populations in the CT-26 model; type: in vivo, mouse (female Balb/c); details: Cmd 32 50 mg/kg, CT-26 tumors
Description: Animals were monitored until tumors were palpable and were then measured until tumor volume reached 100-200 mm^3. They were then randomized into groups using LabCat software and dosing started the following day. Blood was collected in EDTA tubes and kept on ice. Tumor were collected in 15 mL tubes with RPMI-1640 w/10% FBS on ice. Tumors proceeded to the Miltenyi Biotec mouse tumor dissociation kit. Tumor cells were counted on a MACSQuant Analyzer with propidium iodide (PI) for live/dead discrimination. Percent tumor growth inhibition on Day 20 is tabulated below (Table 11). Tumor volume of individual animals on day 20 and the tumor growth over the course of the study are represented in FIG. 1A and FIG. 1B respectively. Cell-surface marker assays were used to identify intratumoral T cell populations and calculate CD8+ (CTL; cytotoxic T-cell): Treg (regulatory T cell) ratio.

Row | Compound | % TGI (Day 20), percent tumor growth inhibition (CT-26 tumor; Cmd 1 100 mg/kg QD PO) | Percent tumor growth inhibition (TGI) (MC38 tumor; Cmd 1 10 mg/kg, Cmd 32 0 mg/kg) | % TGI (Day 20), percent tumor growth inhibition (CT-26 tumor; Cmd 32 50 mg/kg QD PO) | Percent tumor growth inhibition (TGI) (MC38 tumor; Cmd 32 10 mg/kg, Cmd 1 0 mg/kg) | Mortality [1] | Tumor granzyme-B+/PD-1+/Tim-3+ T cells (percent of CD8) ([2]; FIG. 2B) | Tumor granzyme-B+/PD-1+/Tim-3- T cells (percent of CD8) ([2]; FIG. 2C)
1 | CC(O)[C@H](NC(=O)N[C@@H](CC(N)=O)c1nc([C@@H](N)CO)no1)C(=O)O (stereo in doubt) [Cmd 1] | 23% | 25% |  |  |  |  | 
2 | CC(O)[C@H](NC(=O)N[C@@H](CCC(=O)O)c1nc([C@@H](N)CO)no1)C(=O)O (stereo in doubt) [Cmd 32] |  |  | 24% | 10% | found dead | increase | concomitant decrease
